The subject of series [1] is human immunodeficiency viruses. The class given is cell-based, human immunodeficiency virus. As to the method: The IC50 is less than 7 μg per ml. The inhibitory activity can be measured by light-microscopic observation of HIV-typical syncytia. In this connection, the reduction in syncytia formation is a measure of the activity of the agent, in this case of feglymycin. It is also possible, however, to determine the activity of feglymycin by measuring the amount of HIV particles in cell culture supernatants, e.g. by means of commercially available p24 antigen tests.

Series [2] is classed as cell-based. The source says: The tolerability of feglymycin in both the active concentration and even in higher concetrations is good. Cytotoxic effects or other toxicities were not observed.
The format of series [3] is physicochemical. The source says:
Stable in neutral and mildly alkaline medium, but unstable in strongly acidic or strongly alkaline solutions.

The record followed here is patent US5891851A, “Antibiotic, feglymycin, processes for its preparation and its use” (Hoechst Aktiengesellschaft, priority 1996, dated 1999).

*1 amine or outer side, *2 acyl side, *3 side chain or, on linkers, in order; H or OH if unused. Where a SMILES comes first, the peptide text is derived from it. [ ]: non-standard residue; d: D form. X1 = O=C(C(N[*:1])c1cc(O)cc(O)c1)[*:2]; Hpg = N[CH](C(=O)O)c1ccc(O)cc1

As for `CC(C)C(NC(=O)C(NC(=O)C(N)c1ccc(O)cc1)c1cc(O)cc(O)c1)C(=O)NC(C(=O)NC(C(=O)NC(C(=O)NC(C(=O)NC(C(=O)NC(C(=O)NC(C(=O)NC(C(=O)NC(Cc1ccccc1)C(=O)NC(CC(=O)O)C(=O)O)c1ccc(O)cc1)c1cc(O)cc(O)c1)C(C)C)c1cc(O)cc(O)c1)c1ccc(O)cc1)c1cc(O)cc(O)c1)c1ccc(O)cc1)c1cc(O)cc(O)c1` (stereo not drawn) [feglymycin] (H-[Hpg][X1]V[X1][Hpg][X1][Hpg][X1]V[X1][Hpg]FD-OH; configuration not given here), the “IC50, inhibitory activity on human immunodeficiency viruses” value in series [1] is given as “less than 7 μg per ml”. Moreover, the “Cytotoxic effects or other toxicities” value in series [2] is “not observed”. Further, the Solubility result in series [3] was “soluble in methanol, acetonitrile and water”.
